According to PubChem BioAssay AID1918931 (Molecular Pharmacology Branch, DTP, NCI, 2023):
pIC50: −log10 of the molar value.

System: 138582-337-R-J1-PDC complex spheroid viability
Assay: Anticancer human tumor 138582-337-R-J1-PDC patient-derived Merkel cell tumor cell line growth inhibition
Details: for pIC50: curve of first compound; for viability, T/C: stronger effect = lower value
Method in brief: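 Multicellular complex spheroids of tumor cells with human endothelial cells (HUVEC) and mesenchymal stem cells; the LSD1 inhibitor iadademstat was combined with standard-of-care or investigational agents. Top concentration at or near clinical Cmax, half-log dilutions; final DMSO ≤0.25%.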
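Further: spheroids exposed to agents for 7 days.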
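Wherever viability, T/C is given: 100% = DMSO vehicle control viability.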

Q: `CC1(C)CCC(CN2CCN(c3ccc(C(=O)NS(=O)(=O)c4ccc(NCC5CCOCC5)c([N+](=O)[O-])c4)c(Oc4cnc5[nH]ccc5c4)c3)CC2)=C(c2ccc(Cl)cc2)C1` + NC1CC1c1ccc(-c2cccc(O)c2)cc1 was tested. Which pIC50 (second compound 0.1 µM) did it give?
A: 5.40

Q: And the pIC50 (second compound 0.316 µM)?
A: 5.42

Q: What about the pIC50 (second compound 1 µM) of the same compound?
A: 5.39

Q: What about the pIC50 (second compound 3.16 µM) of the same compound?
A: 5.49

Q: What about the pIC50 (second compound 10 µM) of the same compound?
A: 5.45

Q: And the viability, T/C (second compound 0.1 µM, first compound 0.0316 µM)?
A: 63.8%

Q: And the viability, T/C (second compound 0.1 µM, first compound 0.1 µM)?
A: 55.9%

Q: And the viability, T/C (second compound 0.1 µM, first compound 0.316 µM)?
A: 56.7%

Q: What about the viability, T/C (second compound 0.1 µM, first compound 1 µM) of the same compound?
A: 66.3%

Q: And the viability, T/C (second compound 0.1 µM, first compound 3.16 µM)?
A: 66.6%

Q: And the viability, T/C (second compound 0.1 µM, first compound 10 µM)?
A: 2.31%

Q: What about the viability, T/C (second compound 0.316 µM, first compound 0.0316 µM) of the same compound?
A: 70.8%

Q: And the viability, T/C (second compound 0.316 µM, first compound 0.1 µM)?
A: 63%

Q: And the viability, T/C (second compound 0.316 µM, first compound 0.316 µM)?
A: 59.4%

Q: And the viability, T/C (second compound 0.316 µM, first compound 1 µM)?
A: 67.9%

Q: And the viability, T/C (second compound 0.316 µM, first compound 3.16 µM)?
A: 58.1%

Q: And the viability, T/C (second compound 0.316 µM, first compound 10 µM)?
A: 2.2%

Q: And the viability, T/C (second compound 1 µM, first compound 0.0316 µM)?
A: 69.7%

Q: And the viability, T/C (second compound 1 µM, first compound 0.1 µM)?
A: 64.2%

Q: And the viability, T/C (second compound 1 µM, first compound 0.316 µM)?
A: 78%

Q: And the viability, T/C (second compound 1 µM, first compound 1 µM)?
A: 64%

Q: And the viability, T/C (second compound 1 µM, first compound 3.16 µM)?
A: 63.5%

Q: And the viability, T/C (second compound 1 µM, first compound 10 µM)?
A: 1.33%

Q: What about the viability, T/C (second compound 3.16 µM, first compound 0.0316 µM) of the same compound?
A: 62.9%

Q: And the viability, T/C (second compound 3.16 µM, first compound 0.1 µM)?
A: 68.5%

Q: And the viability, T/C (second compound 3.16 µM, first compound 0.316 µM)?
A: 57.9%

Q: What about the viability, T/C (second compound 3.16 µM, first compound 1 µM) of the same compound?
A: 65.3%

Q: And the viability, T/C (second compound 3.16 µM, first compound 3.16 µM)?
A: 51.6%

Q: What about the viability, T/C (second compound 3.16 µM, first compound 10 µM) of the same compound?
A: 2.03%

Q: And the viability, T/C (second compound 10 µM, first compound 0.0316 µM)?
A: 62.3%

Q: And the viability, T/C (second compound 10 µM, first compound 0.1 µM)?
A: 69.8%

Q: What about the viability, T/C (second compound 10 µM, first compound 0.316 µM) of the same compound?
A: 72.9%

Q: What about the viability, T/C (second compound 10 µM, first compound 1 µM) of the same compound?
A: 70.4%

Q: And the viability, T/C (second compound 10 µM, first compound 3.16 µM)?
A: 55.6%

Q: And the viability, T/C (second compound 10 µM, first compound 10 µM)?
A: 1.17%

Q: `CCN(c1cc(-c2ccc(CN3CCOCC3)cc2)cc(C(=O)NCc2c(C)cc(C)[nH]c2=O)c1C)C1CCOCC1` + NC1CC1c1ccc(-c2cccc(O)c2)cc1 was tested. Which pIC50 (second compound 0.1 µM) did it give?
A: < 5.52

Q: What about the pIC50 (second compound 0.316 µM) of the same compound?
A: < 5.52

Q: And the pIC50 (second compound 1 µM)?
A: < 5.52

Q: What about the pIC50 (second compound 3.16 µM) of the same compound?
A: < 5.52

Q: And the pIC50 (second compound 10 µM)?
A: < 5.52

Q: And the viability, T/C (second compound 0.1 µM, first compound 0.00949 µM)?
A: 76.8%

Q: What about the viability, T/C (second compound 0.1 µM, first compound 0.03 µM) of the same compound?
A: 69.5%

Q: And the viability, T/C (second compound 0.1 µM, first compound 0.0949 µM)?
A: 53.6%

Q: What about the viability, T/C (second compound 0.1 µM, first compound 0.3 µM) of the same compound?
A: 59.3%

Q: And the viability, T/C (second compound 0.1 µM, first compound 0.949 µM)?
A: 66.9%

Q: And the viability, T/C (second compound 0.1 µM, first compound 3 µM)?
A: 64.6%

Q: And the viability, T/C (second compound 0.316 µM, first compound 0.00949 µM)?
A: 80.8%

Q: And the viability, T/C (second compound 0.316 µM, first compound 0.03 µM)?
A: 81%

Q: What about the viability, T/C (second compound 0.316 µM, first compound 0.0949 µM) of the same compound?
A: 77.9%

Q: What about the viability, T/C (second compound 0.316 µM, first compound 0.3 µM) of the same compound?
A: 66.6%

Q: What about the viability, T/C (second compound 0.316 µM, first compound 0.949 µM) of the same compound?
A: 59%

Q: And the viability, T/C (second compound 0.316 µM, first compound 3 µM)?
A: 67.1%

Q: And the viability, T/C (second compound 1 µM, first compound 0.00949 µM)?
A: 78.3%

Q: And the viability, T/C (second compound 1 µM, first compound 0.03 µM)?
A: 72.7%

Q: What about the viability, T/C (second compound 1 µM, first compound 0.0949 µM) of the same compound?
A: 77.1%

Q: What about the viability, T/C (second compound 1 µM, first compound 0.3 µM) of the same compound?
A: 66.8%

Q: What about the viability, T/C (second compound 1 µM, first compound 0.949 µM) of the same compound?
A: 64.7%

Q: What about the viability, T/C (second compound 1 µM, first compound 3 µM) of the same compound?
A: 60.5%

Q: And the viability, T/C (second compound 3.16 µM, first compound 0.00949 µM)?
A: 75.8%

Q: And the viability, T/C (second compound 3.16 µM, first compound 0.03 µM)?
A: 84.9%

Q: And the viability, T/C (second compound 3.16 µM, first compound 0.0949 µM)?
A: 82%

Q: What about the viability, T/C (second compound 3.16 µM, first compound 0.3 µM) of the same compound?
A: 75.2%

Q: And the viability, T/C (second compound 3.16 µM, first compound 0.949 µM)?
A: 59.4%

Q: And the viability, T/C (second compound 3.16 µM, first compound 3 µM)?
A: 66.9%

Q: And the viability, T/C (second compound 10 µM, first compound 0.00949 µM)?
A: 63.7%

Q: What about the viability, T/C (second compound 10 µM, first compound 0.03 µM) of the same compound?
A: 91.8%

Q: And the viability, T/C (second compound 10 µM, first compound 0.0949 µM)?
A: 74%

Q: And the viability, T/C (second compound 10 µM, first compound 0.3 µM)?
A: 80.3%

Q: What about the viability, T/C (second compound 10 µM, first compound 0.949 µM) of the same compound?
A: 61.4%

Q: And the viability, T/C (second compound 10 µM, first compound 3 µM)?
A: 72.4%
